According to patent US7723068B2, “Gene cluster involved in safracin biosynthesis and its uses for genetic engineering” (PharmaMar, S.A., priority 2002, dated 2010):

System: DU-145
Test: cells
Conditions: Homo sapiens, DU-145, read-out: GI50 DU-145

Compound | GI50
COc1c(C)cc2c(c1O)C1C3Cc4cc(C)c(OC)c(O)c4C(CNC(=O)C(C)N)N3CC(C2)N1C (centres unmarked) [Safracin P-22A] | > 19.6 µM

Same assay, conditions: Homo sapiens, DU-145, read-out: LC50 DU-145

Compound | CC50
COc1c(C)cc2c(c1O)C1C3Cc4cc(C)c(OC)c(O)c4C(CNC(=O)C(C)N)N3CC(C2)N1C (centres unmarked) [Safracin P-22A] | > 19.6 µM

System: DU-145
Test: not given
Conditions: Prostate

Compound | TGI DU-145
COc1c(C)cc2c(c1O)C1C3Cc4cc(C)c(OC)c(O)c4C(CNC(=O)C(C)N)N3CC(C2)N1C (centres unmarked) [Safracin P-22A] | >19.6 µM

System: LN-caP
Test: not given
Conditions: Prostate

Compound | TGI LN-caP
COc1c(C)cc2c(c1O)C1C3Cc4cc(C)c(OC)c(O)c4C(CNC(=O)C(C)N)N3CC(C2)N1C (centres unmarked) [Safracin P-22A] | 9.26 µM

System: SK-MEL-28
Test: not given
Conditions: Melanoma

Compound | TGI SK-MEL-28
COc1c(C)cc2c(c1O)C1C3Cc4cc(C)c(OC)c(O)c4C(CNC(=O)C(C)N)N3CC(C2)N1C (centres unmarked) [Safracin P-22A] | 13.3 µM

System: LOVO
Test: not given
Conditions: Colon

Compound | TGI LOVO
COc1c(C)cc2c(c1O)C1C3Cc4cc(C)c(OC)c(O)c4C(CNC(=O)C(C)N)N3CC(C2)N1C (centres unmarked) [Safracin P-22A] | >19.6 µM

System: IGROV-ET
Test: not given
Conditions: Ovary

Compound | TGI IGROV-ET
COc1c(C)cc2c(c1O)C1C3Cc4cc(C)c(OC)c(O)c4C(CNC(=O)C(C)N)N3CC(C2)N1C (centres unmarked) [Safracin P-22A] | >19.6 µM

System: LOVO-DOX
Test: not given
Conditions: Colon

Compound | TGI LOVO-DOX
COc1c(C)cc2c(c1O)C1C3Cc4cc(C)c(OC)c(O)c4C(CNC(=O)C(C)N)N3CC(C2)N1C (centres unmarked) [Safracin P-22A] | >19.6 µM

System: HT29
Test: cells
Conditions: Homo sapiens, HT-29, read-out: GI50 HT29

Compound | GI50
COc1c(C)cc2c(c1O)C1C3Cc4cc(C)c(OC)c(O)c4C(CNC(=O)C(C)N)N3CC(C2)N1C (centres unmarked) [Safracin P-22A] | 12.6 µM

Same assay, conditions: Homo sapiens, HT-29, read-out: LC50 HT29

Compound | CC50
COc1c(C)cc2c(c1O)C1C3Cc4cc(C)c(OC)c(O)c4C(CNC(=O)C(C)N)N3CC(C2)N1C (centres unmarked) [Safracin P-22A] | > 19.6 µM

System: SK-BR3
Test: cells
Conditions: Homo sapiens, SK-BR-3, read-out: GI50 SK-BR3

Compound | GI50
COc1c(C)cc2c(c1O)C1C3Cc4cc(C)c(OC)c(O)c4C(CNC(=O)C(C)N)N3CC(C2)N1C (centres unmarked) [Safracin P-22A] | 12.7 µM

Same assay, conditions: Homo sapiens, SK-BR-3, read-out: LC50 SK-BR3

Compound | CC50
COc1c(C)cc2c(c1O)C1C3Cc4cc(C)c(OC)c(O)c4C(CNC(=O)C(C)N)N3CC(C2)N1C (centres unmarked) [Safracin P-22A] | > 19.6 µM

System: PANC1
Test: cells
Conditions: Homo sapiens, PANC-1, read-out: GI50 PANC1

Compound | GI50
COc1c(C)cc2c(c1O)C1C3Cc4cc(C)c(OC)c(O)c4C(CNC(=O)C(C)N)N3CC(C2)N1C (centres unmarked) [Safracin P-22A] | > 19.6 µM

Same assay, conditions: Homo sapiens, PANC-1, read-out: LC50 PANC1

Compound | CC50
COc1c(C)cc2c(c1O)C1C3Cc4cc(C)c(OC)c(O)c4C(CNC(=O)C(C)N)N3CC(C2)N1C (centres unmarked) [Safracin P-22A] | > 19.6 µM

System: HELA
Test: cells
Conditions: Homo sapiens, read-out: GI50 HELA

Compound | GI50
COc1c(C)cc2c(c1O)C1C3Cc4cc(C)c(OC)c(O)c4C(CNC(=O)C(C)N)N3CC(C2)N1C (centres unmarked) [Safracin P-22A] | 8.75 µM

Same assay, conditions: Homo sapiens, read-out: LC50 HELA

Compound | CC50
COc1c(C)cc2c(c1O)C1C3Cc4cc(C)c(OC)c(O)c4C(CNC(=O)C(C)N)N3CC(C2)N1C (centres unmarked) [Safracin P-22A] | > 19.6 µM

System: IGROV-ET
Test: cells
Conditions: read-out: GI50 IGROV-ET

Compound | GI50
COc1c(C)cc2c(c1O)C1C3Cc4cc(C)c(OC)c(O)c4C(CNC(=O)C(C)N)N3CC(C2)N1C (centres unmarked) [Safracin P-22A] | 13 µM

Same assay, conditions: read-out: LC50 IGROV-ET

Compound | CC50
COc1c(C)cc2c(c1O)C1C3Cc4cc(C)c(OC)c(O)c4C(CNC(=O)C(C)N)N3CC(C2)N1C (centres unmarked) [Safracin P-22A] | > 19.6 µM

System: not listed separately
Test: Antibacterial and antitumoral activities, general statements
Conditions: compared with safracin A / safracin B

Compound | antibacterial and antitumoral activities (in words)
COc1c(C)cc2c(c1O)C1C3Cc4cc(C)c(OC)c(O)c4C(CNC(=O)C(C)N)N3CC(C2)N1C (centres unmarked) [Safracin P-22A] | appear to loose their activity

System: SK-MEL-28
Test: cells
Conditions: Homo sapiens, SK-MEL-28, read-out: GI50 SK-MEL-28

Compound | GI50
COc1c(C)cc2c(c1O)C1C3Cc4cc(C)c(OC)c(O)c4C(CNC(=O)C(C)N)N3CC(C2)N1C (centres unmarked) [Safracin P-22A] | 5.93 µM

Same assay, conditions: Homo sapiens, SK-MEL-28, read-out: LC50 SK-MEL-28

Compound | CC50
COc1c(C)cc2c(c1O)C1C3Cc4cc(C)c(OC)c(O)c4C(CNC(=O)C(C)N)N3CC(C2)N1C (centres unmarked) [Safracin P-22A] | > 19.6 µM

System: LN-caP
Test: cells
Conditions: Homo sapiens, LNCaP, read-out: GI50 LN-caP

Compound | GI50
COc1c(C)cc2c(c1O)C1C3Cc4cc(C)c(OC)c(O)c4C(CNC(=O)C(C)N)N3CC(C2)N1C (centres unmarked) [Safracin P-22A] | 4.19 µM

Same assay, conditions: Homo sapiens, LNCaP, read-out: LC50 LN-caP

Compound | CC50
COc1c(C)cc2c(c1O)C1C3Cc4cc(C)c(OC)c(O)c4C(CNC(=O)C(C)N)N3CC(C2)N1C (centres unmarked) [Safracin P-22A] | > 19.6 µM

System: K-562
Test: not given
Conditions: Leukemia

Compound | TGI K-562
COc1c(C)cc2c(c1O)C1C3Cc4cc(C)c(OC)c(O)c4C(CNC(=O)C(C)N)N3CC(C2)N1C (centres unmarked) [Safracin P-22A] | 7.93 µM

System: A549
Test: not given
Conditions: NSCL

Compound | TGI A549
COc1c(C)cc2c(c1O)C1C3Cc4cc(C)c(OC)c(O)c4C(CNC(=O)C(C)N)N3CC(C2)N1C (centres unmarked) [Safracin P-22A] | >19.6 µM

System: HELA
Test: not given
Conditions: Cervix

Compound | TGI HELA
COc1c(C)cc2c(c1O)C1C3Cc4cc(C)c(OC)c(O)c4C(CNC(=O)C(C)N)N3CC(C2)N1C (centres unmarked) [Safracin P-22A] | >19.6 µM

System: HELA-APL
Test: cells
Conditions: read-out: GI50 HELA-APL

Compound | GI50
COc1c(C)cc2c(c1O)C1C3Cc4cc(C)c(OC)c(O)c4C(CNC(=O)C(C)N)N3CC(C2)N1C (centres unmarked) [Safracin P-22A] | 7.66 µM

Same assay, conditions: read-out: LC50 HELA-APL

Compound | CC50
COc1c(C)cc2c(c1O)C1C3Cc4cc(C)c(OC)c(O)c4C(CNC(=O)C(C)N)N3CC(C2)N1C (centres unmarked) [Safracin P-22A] | > 19.6 µM

System: SK-BR3
Test: not given
Conditions: Breast

Compound | TGI SK-BR3
COc1c(C)cc2c(c1O)C1C3Cc4cc(C)c(OC)c(O)c4C(CNC(=O)C(C)N)N3CC(C2)N1C (centres unmarked) [Safracin P-22A] | >19.6 µM

System: PANC1
Test: not given
Conditions: Pancreas

Compound | TGI PANC1
COc1c(C)cc2c(c1O)C1C3Cc4cc(C)c(OC)c(O)c4C(CNC(=O)C(C)N)N3CC(C2)N1C (centres unmarked) [Safracin P-22A] | >19.6 µM

System: LOVO
Test: cells
Conditions: Homo sapiens, read-out: GI50 LOVO

Compound | GI50
COc1c(C)cc2c(c1O)C1C3Cc4cc(C)c(OC)c(O)c4C(CNC(=O)C(C)N)N3CC(C2)N1C (centres unmarked) [Safracin P-22A] | > 19.6 µM

Same assay, conditions: Homo sapiens, read-out: LC50 LOVO

Compound | CC50
COc1c(C)cc2c(c1O)C1C3Cc4cc(C)c(OC)c(O)c4C(CNC(=O)C(C)N)N3CC(C2)N1C (centres unmarked) [Safracin P-22A] | > 19.6 µM

System: IGROV
Test: cells
Conditions: read-out: GI50 IGROV

Compound | GI50
COc1c(C)cc2c(c1O)C1C3Cc4cc(C)c(OC)c(O)c4C(CNC(=O)C(C)N)N3CC(C2)N1C (centres unmarked) [Safracin P-22A] | 7.74 µM

Same assay, conditions: read-out: LC50 IGROV

Compound | CC50
COc1c(C)cc2c(c1O)C1C3Cc4cc(C)c(OC)c(O)c4C(CNC(=O)C(C)N)N3CC(C2)N1C (centres unmarked) [Safracin P-22A] | > 19.6 µM

System: A549
Test: cells
Conditions: Homo sapiens, A549, read-out: GI50 A549

Compound | GI50
COc1c(C)cc2c(c1O)C1C3Cc4cc(C)c(OC)c(O)c4C(CNC(=O)C(C)N)N3CC(C2)N1C (centres unmarked) [Safracin P-22A] | > 19.6 µM

Same assay, conditions: Homo sapiens, A549, read-out: LC50 A549

Compound | CC50
COc1c(C)cc2c(c1O)C1C3Cc4cc(C)c(OC)c(O)c4C(CNC(=O)C(C)N)N3CC(C2)N1C (centres unmarked) [Safracin P-22A] | > 19.6 µM

System: Bacillus subtilis
Test: Antimicrobial activity on solid medium, disk
Assay type: cell-based
Conditions: 10 μg/disk (6 mm diameter)
Protocol: Antimicrobial activity: On solid medium Bacillus subtilis. 10 μg/disk (6 mm diameter): 10 mm inhibition zone Spectroscopic Data: […]

Compound | Antimicrobial activity: inhibition zone
COc1c(C)cc2c(c1O)C1C3Cc4cc(C)c(OC)c(O)c4C(CNC(=O)C(C)N)N3CC(C2)N1C (centres unmarked) [Safracin P-22A] | NO ACTIVE

System: HT29
Test: not given
Conditions: Colon

Compound | TGI HT29
COc1c(C)cc2c(c1O)C1C3Cc4cc(C)c(OC)c(O)c4C(CNC(=O)C(C)N)N3CC(C2)N1C (centres unmarked) [Safracin P-22A] | >19.6 µM

System: K-562
Test: cells
Conditions: Homo sapiens, K562, read-out: GI50 K-562

Compound | GI50
COc1c(C)cc2c(c1O)C1C3Cc4cc(C)c(OC)c(O)c4C(CNC(=O)C(C)N)N3CC(C2)N1C (centres unmarked) [Safracin P-22A] | 3.15 µM

Same assay, conditions: Homo sapiens, K562, read-out: LC50 K-562

Compound | CC50
COc1c(C)cc2c(c1O)C1C3Cc4cc(C)c(OC)c(O)c4C(CNC(=O)C(C)N)N3CC(C2)N1C (centres unmarked) [Safracin P-22A] | 19.6 µM

System: LOVO-DOX
Test: cells
Conditions: read-out: GI50 LOVO-DOX

Compound | GI50
COc1c(C)cc2c(c1O)C1C3Cc4cc(C)c(OC)c(O)c4C(CNC(=O)C(C)N)N3CC(C2)N1C (centres unmarked) [Safracin P-22A] | > 19.6 µM

Same assay, conditions: read-out: LC50 LOVO-DOX

Compound | CC50
COc1c(C)cc2c(c1O)C1C3Cc4cc(C)c(OC)c(O)c4C(CNC(=O)C(C)N)N3CC(C2)N1C (centres unmarked) [Safracin P-22A] | > 19.6 µM

System: IGROV
Test: not given
Conditions: Ovary

Compound | TGI IGROV
COc1c(C)cc2c(c1O)C1C3Cc4cc(C)c(OC)c(O)c4C(CNC(=O)C(C)N)N3CC(C2)N1C (centres unmarked) [Safracin P-22A] | 19.6 µM

System: HELA-APL
Test: not given
Conditions: Cervix

Compound | TGI HELA-APL
COc1c(C)cc2c(c1O)C1C3Cc4cc(C)c(OC)c(O)c4C(CNC(=O)C(C)N)N3CC(C2)N1C (centres unmarked) [Safracin P-22A] | 19.6 µM
